# From US12268690B2, “Treatments for mutations in acute myeloid leukemia” (OREGON HEALTH & SCIENCE UNIVERSITY, priority 2018, dated 2025)
# System: freshly isolated mononuclear cells from AML samples
# Test: Ex vivo functional drug screen (MTS viability, AUC) on primary AML samples, compared by mutation or clinical group
# Type: cell-based, human
# From the text: This panel contained graded concentrations of a drugs with activity against two-thirds of the tyrosine kinome as well as other non-tyrosine kinase pathways, including MAPKs, PI3K/AKT/mTOR, AMPK, ATM, Aurora kinases, CAMKs, CDKs, GSK3a/b, IκK, PKA, PKC, PLK1, and RAF. In addition, the library contained small molecule inhibitors with activity against the BCL2 family, BRD4, Hedgehog, HSP90, NOTCH/gamma-secretase, proteasome, survivin, STAT3, and WNT/beta-catenin. Drug sensitivity patterns were analyzed with respect to clinical and genetic features of tumors. We compared the average area-under-the curve (AUC) values for each drug between the de novo and transformed samples via a series of single factor ANOVAs. […] In addition, we analyzed the concordance of drug sensitivity patterns with respect to predicted target gene, gene family, or pathway for each drug. […] To create a global view of overall sensitivity or resistance of each case, we generated a heatmap of binary sensitive/resistant calls for each sample to each drug.
# Correlation of drug sensitivity with mutational events was performed by assessing the range of sensitivity of cases with mutation of an individual gene (as well as co-occurring mutational events) versus cases with wild type sequence for that same gene. […] The difference in average drug sensitivity of mutant versus wild type cases for each drug/mutation pair was plotted on the horizontal axis of a volcano plot with a test for statistical significance of the comparison plotted on the vertical axis (corrected for multiple comparison false discovery rate^42; FIG. 4). […] To aid in discovery of potential mutational biomarkers of drug sensitivity, we plotted volcano plots that were specific to each individual drug (versus all possible mutational events) and for each individual gene (versus all possible drugs tested).
# Ex vivo drug screens were performed on freshly isolated mononuclear cells from AML samples as previously described^41.
# Ex vivo functional drug screens were performed on freshly isolated mononuclear cells from AML samples. […] Drug plates were created using inhibitors purchased from LC Laboratories and Selleck Chemicals and master stocks were reconstituted in DMSO and stored at −80° C. […] DMSO control wells and positive control wells containing a drug combination of Flavopiridol, Staurosporine and Velcade were placed on each plate, with the final concentration of DMSO ≤0.1% in all wells. Daughter plates were created using a V&P Scientific 384-well pin tool head operated by the Caliper Sciclone ALH 3000 and equipped with 0.457 mm diameter, 30 nanoliter, slotted stainless steel pins (cat num: FP1NS30). Daughter and destination plates were sealed with pealable thermal seals using a PlateLoc thermal sealer. Destination plates were stored at −20° C. for no more than three months and thawed immediately before use. Primary mononuclear cells were plated across single-agent inhibitor panels within 24 h of collection. […] After 3 d of culture at 37° C. in 5% CO2, MTS reagent (CellTiter96 AQueous One; Promega) was added, optical density was measured at 490 nm, and raw absorbance values were adjusted to a reference blank value and then used to determine cell viability (normalized to untreated control wells).
# A given sample was run on one or more panels and within each panel, the majority of drugs were run without within-panel replicates. […] An additional set of ‘curve-free’ AUCs was computed for sample-inhibitor pairs run on multiple panels.
# Based on the methodology used in our prior drug combination study^36, a probit regression was fit to all possible run groups using the model: (normalized_viability/100)˜1+log 10(concentration) Where for all groups there were N=7 dose-response measurements. The summary measures of curve fit were inspected and cutoffs were devised removing all runs with an AIC >12 and deviance >2.
structure (smiles),measurement,setting,value
CN(NC(=O)CC(=O)NN(C)C(=S)c1ccccc1)C(=S)c1ccccc1 [elesclemol],drug sensitivity of mutant cases,TP53 mutant cases,trended more sensitive
CC1(COc2ccc3c(c2)ncn3-c2ccc3cccc(N4CCC(N)CC4)c3n2)COC1 [Crenolanib],drug sensitivity mutant vs wild type (average difference in AUC; top left quadrant of volcano plot),CBFB.MYH11,Crenolanib
same,drug sensitivity mutant vs wild type (average difference in AUC; top left quadrant of volcano plot),DNMT3A:FLT3,Crenolanib
same,drug sensitivity mutant vs wild type (average difference in AUC; top left quadrant of volcano plot),NPM1,crenolanib
same,drug sensitivity mutant vs wild type (average difference in AUC; top left quadrant of volcano plot),NPM1:DNMT3A,Crenolanib
COc1cc(Oc2ccnc3cc(OC)c(OC)cc23)ccc1NC(=O)NC(C)c1nccs1 (stereo not drawn) [KI20227],drug sensitivity mutant vs wild type (average difference in AUC; top left quadrant of volcano plot),NPM1:SRSF2:IDH2,KI20227
CS(=O)(=O)c1ccc(C(=O)Nc2ccc(Cl)c(-c3ccccn3)c2)c(Cl)c1 [Vismodegib],drug sensitivity mutant vs wild type (average difference in AUC; top left quadrant of volcano plot),WT1,Vismodegib
O=c1cc(-c2cccc3c2Sc2ccccc2S3)oc(N2CCOCC2)c1 [KU-55933],drug sensitivity mutant vs wild type (average difference in AUC; top left quadrant of volcano plot),ZRSR2,KU-55933
CC(C)(C)c1cnc(CSc2cnc(NC(=O)C3CCNCC3)s2)o1 [SNS-032],drug sensitivity mutant vs wild type (average difference in AUC; top left quadrant of volcano plot),ASXL1,SNS-032 (BMS-387032)
same,drug sensitivity mutant vs wild type (average difference in AUC; top left quadrant of volcano plot),NPM1,SNS-032
COc1cc2ncnc(Nc3ccc(F)c(Cl)c3)c2cc1OCCCN1CCOCC1 [Gefitinib],drug sensitivity mutant vs wild type (average difference in AUC; top left quadrant of volcano plot),FLT3_ITD,gefitinib
same,drug sensitivity mutant vs wild type (average difference in AUC; top left quadrant of volcano plot),FLT3_ITD:SRSF2,Gefitinib
same,drug sensitivity mutant vs wild type (average difference in AUC; top left quadrant of volcano plot),FLT3_ITD_IHD2,gefitinib
same,drug sensitivity mutant vs wild type (average difference in AUC; top left quadrant of volcano plot),NPM1,Gefitinib
same,drug sensitivity mutant vs wild type (average difference in AUC; top left quadrant of volcano plot),NPM1:DNMT3A,Gefitinib
same,drug sensitivity mutant vs wild type (average difference in AUC; top left quadrant of volcano plot),NPM1:FLT3_ITD,gefitinib
same,drug sensitivity mutant vs wild type (average difference in AUC; top left quadrant of volcano plot),NPM1:FLT3_ITD:DNMT3A,gefitinib
same,drug sensitivity mutant vs wild type (average difference in AUC; top left quadrant of volcano plot),NPM1:IDH2,gefitinib
same,drug sensitivity mutant vs wild type (average difference in AUC; top left quadrant of volcano plot),NPM1:SRSF2,gefitinib
CC(C)(C)c1cc(NC(=O)Nc2ccc(-c3cn4c(n3)sc3cc(OCCN5CCOCC5)ccc34)cc2)no1 [Quizartinib],drug sensitivity mutant vs wild type (average difference in AUC; top left quadrant of volcano plot),NPM1,quizartinib
same,drug sensitivity mutant vs wild type (average difference in AUC; top left quadrant of volcano plot),NPM1:DNMT3A,Quizartinib
same,drug sensitivity mutant vs wild type (average difference in AUC; top left quadrant of volcano plot),NPM1:IDH2,quizartinib
same,drug sensitivity mutant vs wild type (average difference in AUC; top left quadrant of volcano plot),NPM1:SRSF2,quizartinib
Cc1cc(Nc2nc(N[C@@H](C)c3ncc(F)cn3)ncc2Cl)n[nH]1 [AZD1480],drug sensitivity mutant vs wild type (average difference in AUC; top left quadrant of volcano plot),NPM1:SRSF2:IDH2,AZD1480
"C[C@H](NC(=O)Cc1cc(F)cc(F)c1)C(=O)N[C@@H]1C(=O)N(C)c2ccccc2-c2ccccc21 [DBZ, N-[(1S)-2-[[(7S)-6,7-Dihydro-5-methyl-6-oxo-5H-dibenz[b,d]azepin-7-yl]amino]-1-methyl-2-oxoethyl]-3,5-difluorobenzeneacetamide]",drug sensitivity mutant vs wild type (average difference in AUC; top left quadrant of volcano plot),FLT3_ITD:IDH1,DBZ
same,drug sensitivity mutant vs wild type (average difference in AUC; top left quadrant of volcano plot),IDH2,DBZ
same,drug sensitivity mutant vs wild type (average difference in AUC; top left quadrant of volcano plot),NPM1,DBZ
same,drug sensitivity mutant vs wild type (average difference in AUC; top left quadrant of volcano plot),NPM1:IDH2,DBZ
same,drug sensitivity mutant vs wild type (average difference in AUC; top left quadrant of volcano plot),NPM1:SRSF2,DBZ
same,drug sensitivity mutant vs wild type (average difference in AUC; top left quadrant of volcano plot),NPM1:SRSF2:IDH2,DBZ
O=c1ncn2nc(Sc3ccc(F)cc3F)ccc2c1-c1c(Cl)cccc1Cl [vx-745],drug sensitivity mutant vs wild type (average difference in AUC; top left quadrant of volcano plot),FLT3_ITD,vx-745
same,drug sensitivity mutant vs wild type (average difference in AUC; top left quadrant of volcano plot),FLT3_ITD:ASXL1,vx-745
same,drug sensitivity mutant vs wild type (average difference in AUC; top left quadrant of volcano plot),NPM1:IDH2,vx-
same,drug sensitivity mutant vs wild type (average difference in AUC; top left quadrant of volcano plot),NPM1:SRSF2,vx-745
Cn1cc(-c2ccc3nnc(C(F)(F)c4ccc5ncccc5c4)n3n2)cn1 [JNJ-38877605],drug sensitivity mutant vs wild type (average difference in AUC; top left quadrant of volcano plot),BCOR:RUNX1,JNJ-38877605
Clc1ccc(Nc2nnc(Cc3ccncc3)c3ccccc23)cc1 [Vatalanib],drug sensitivity mutant vs wild type (average difference in AUC; top left quadrant of volcano plot),FLT3_ITD,vatalanib
same,drug sensitivity mutant vs wild type (average difference in AUC; top left quadrant of volcano plot),FLT3_ITD:ASXL1,vatalanib
same,drug sensitivity mutant vs wild type (average difference in AUC; top left quadrant of volcano plot),MLLT3.KMT2A,Vatalanib
same,drug sensitivity mutant vs wild type (average difference in AUC; top left quadrant of volcano plot),NPM1:FLT3_ITD,vatalanib
same,drug sensitivity mutant vs wild type (average difference in AUC; top left quadrant of volcano plot),SMC1A,Vatalanib
C=CC(=O)Nc1cc2c(Nc3ccc(F)c(Cl)c3)ncnc2cc1OCCCN1CCOCC1 [canertinib],drug sensitivity mutant vs wild type (average difference in AUC; top left quadrant of volcano plot),FLT3_ITD,canertinib
same,drug sensitivity mutant vs wild type (average difference in AUC; top left quadrant of volcano plot),FLT3_ITD:TET2,canertinib
same,drug sensitivity mutant vs wild type (average difference in AUC; top left quadrant of volcano plot),FLT3_ITD_IHD2,canertinib
same,drug sensitivity mutant vs wild type (average difference in AUC; top left quadrant of volcano plot),NPM1:FLT3_ITD,canertinib
same,drug sensitivity mutant vs wild type (average difference in AUC; top left quadrant of volcano plot),SMC1A,canertinib
COc1ccc(COc2ccc(Cc3cnc(N)nc3N)cc2OC)cc1 [GW-2580],drug sensitivity mutant vs wild type (average difference in AUC; top left quadrant of volcano plot),IDH2,GW-2580
same,drug sensitivity mutant vs wild type (average difference in AUC; top left quadrant of volcano plot),NPM1:IDH2,GW-2580
same,drug sensitivity mutant vs wild type (average difference in AUC; top left quadrant of volcano plot),NPM1:SRSF2,gw-2580
C#Cc1cccc(Nc2ncnc3cc(OCCOC)c(OCCOC)cc23)c1 [erlotinib],drug sensitivity mutant vs wild type (average difference in AUC; top left quadrant of volcano plot),FLT3_ITD:DNMT3A,erlotinib
same,drug sensitivity mutant vs wild type (average difference in AUC; top left quadrant of volcano plot),NPM1,erlotinib
same,drug sensitivity mutant vs wild type (average difference in AUC; top left quadrant of volcano plot),NPM1:FLT3_ITD:DNMT3A,erlotinib
same,drug sensitivity mutant vs wild type (average difference in AUC; top left quadrant of volcano plot),NPM1:FLT3_ITD:TET2,erlotinib
same,drug sensitivity mutant vs wild type (average difference in AUC; top left quadrant of volcano plot),NPM1:IDH1,erlotinib
same,drug sensitivity mutant vs wild type (average difference in AUC; top left quadrant of volcano plot),NPM1:IDH2,erlotinib
same,drug sensitivity mutant vs wild type (average difference in AUC; top left quadrant of volcano plot),NPM1:SRSF2,erlotinib
"CCCS(=O)(=O)Nc1ccc(F)c(C(=O)c2c[nH]c3ncc(Cl)cc23)c1F [PLX-4720, N-(3-(5-chloro-1H-pyrrolo[2,3-b]pyridine-3-carbonyl)-2,4-difluorophenyl)propane-1-sulfonamide]",drug sensitivity mutant vs wild type (average difference in AUC; top left quadrant of volcano plot),CBFB.MYH11,PLX-4720
COc1cc2c(Oc3ccc(NC(=O)C4(C(=O)Nc5ccc(F)cc5)CC4)cc3F)ccnc2cc1OCCCN1CCOCC1 [Foretinib],drug sensitivity mutant vs wild type (average difference in AUC; top left quadrant of volcano plot),FLT3,Foretinib (XL880)
same,drug sensitivity mutant vs wild type (average difference in AUC; top left quadrant of volcano plot),FLT3_ITD:TET2:DNMT3A,Foretinib
same,drug sensitivity mutant vs wild type (average difference in AUC; top left quadrant of volcano plot),FLT3_ITD:WT1,foretinib
same,drug sensitivity mutant vs wild type (average difference in AUC; top left quadrant of volcano plot),IDH2,Foretinib
same,drug sensitivity mutant vs wild type (average difference in AUC; top left quadrant of volcano plot),NPM1,Foretinib
same,drug sensitivity mutant vs wild type (average difference in AUC; top left quadrant of volcano plot),NPM1:DNMT3A,foretinib
same,drug sensitivity mutant vs wild type (average difference in AUC; top left quadrant of volcano plot),NPM1:FLT3,Foretinib
same,drug sensitivity mutant vs wild type (average difference in AUC; top left quadrant of volcano plot),NPM1:FLT3_ITD,foretinib
same,drug sensitivity mutant vs wild type (average difference in AUC; top left quadrant of volcano plot),NPM1:FLT3_ITD:DNMT3A,foretinib
same,drug sensitivity mutant vs wild type (average difference in AUC; top left quadrant of volcano plot),NPM1:SRSF2,Foretinib
same,drug sensitivity mutant vs wild type (average difference in AUC; top left quadrant of volcano plot),SMC1A,foretinib
Cc1[nH]c(/C=C2\C(=O)Nc3ccc(S(=O)(=O)Cc4c(Cl)cccc4Cl)cc32)c(C)c1C(=O)N1CCC[C@@H]1CN1CCCC1 [PHA-665752],drug sensitivity mutant vs wild type (average difference in AUC; top left quadrant of volcano plot),IDH2,PHA-665752
CN1CC[C@H](c2c(O)cc(O)c3c(=O)cc(-c4ccccc4Cl)oc23)[C@H](O)C1 [Flavopiridol],drug sensitivity mutant vs wild type (average difference in AUC; top left quadrant of volcano plot),NRAS,"(GSK1120212), or Flavopiridol"
